# Experimental data reported in US7659240B2, “Mucin immobilized chromatography” (Vertex Pharmaceuticals Incorporated, priority 2002, dated 2010).
# “And” between values parts separate entries of the source, which are not always exact repeats. Equal values may be shown once. Where a name gives a salt, the structure may show the parent alone. Read-outs that look alike come from different tables or passages of the source.
# Columns and labels:
# [1] = test system: mucin immobilized to IAM.PC.DD2; assay: HPLC on MIC column (2:1 mucin to PC IAM particles): retention time, k′MIC, derived Km and Peff MIC; details: for K′MIC / log k′MIC: MIC 2:1; for k′MIC / Retention Time: MIC column 2:1 mucin:IAM, MPS pH 7.4; for Retention Time: isocratic 0.3 ml/min; for Peff MIC (×10^−4 cm/s): determined by linear equation; for Dm: membrane diffusion coefficient calculated from molecular weight
# Description: [formula] where Dm is the membrane diffusion coefficient of the solute, Km is the membrane equilibrium constant, and L is the membrane thickness (Stein, W., Transport and Diffusion Across Cell Membranes, Academic Press, Orlando, Fla. (1986)). […] Since molecular weight, MW, is proportional to molecular size, Dm may also written as,
# [formula] Thus, Dm can be calculated from the molecular weight. Furthermore, Km is calculated by the following equation, Km−(Vm/Vs)k′, [4] where Vm is the volume of the mobile phase, Vs is the internal volume of the stationary phase, and k′ is the partition ratio (Pidgeon and Ong, Chemtech. June, 38-48 (1995)). The partition ratio is determined by the equation, k′−(tr−to)/to, [5] where tr is the retention time of the drug and to is the void volume of the column. Both tr and to can be experimentally determined in order to obtain k′.
# Equation 2 can be used to determine Km for a given MIC medium. Both Dm and L are known from the discussion above, and Peff can be calculated for various drugs having known in vivo absorption. For example, a number of drug permeability coefficients, Peff, derived from in vivo experiments are listed in literature. […] See Example 5 below.
# Caco-2 = details: from literature, cited from earlier work
# [2] = single-pass perfusions, cited from earlier work
# [3] = test system: mucin immobilized to PC IAM particles; assay: pH and mucin layer thickness dependence of partition ratio on MIC columns (1:2 and 2:1); details: for k′MIC (1:2): column 1:2, 0.32 μm; for k′MIC (1:2) / k′MIC (2:1): pH 7, Table 9; for (1:2) k′ (pH 3) / (1:2) k′ (pH 5) / (1:2) k′ (pH 7): column 1:2 mucin to PC IAM, 0.32 μm mucin layer; for (1:2) k′ (pH 3) / (2:1) k′ (pH 3): mobile phase pH 3; for (1:2) k′ (pH 5) / (2:1) k′ (pH 5): mobile phase pH 5; for (1:2) k′ (pH 7) / (2:1) k′ (pH 7): mobile phase pH 7; for k′MIC (2:1): column 2:1, 0.36 μm; for (2:1) k′ (pH 3) / (2:1) k′ (pH 5) / (2:1) k′ (pH 7): column 2:1 mucin to PC IAM, 0.36 μm mucin layer
# Description: Samples were dissolved in mobile phase solution and filtered (filter pore size, 0.45 μm) prior to injection. […] From this measurement and a measurement of the void volume (t0) the k′MIC could be determined. In addition, from the molecular weight of the compounds, Dm could be determined. These compounds, with the exceptions noted below, were used to generate the column constant (Vm/Vs).
# For these reasons, the influence of pH on drug retention times was measured on columns having two different mucin layer thicknesses, 0.32 μm (column prepared with a 1:2 wt % of mucin to PC IAM particles) and 0.36 μm (column prepared with a 2:1 wt % of mucin to PC IAM particles)(Table 8). […] The influence of pH on drug retention time was measured by using different mobile phase buffers adjusted to pH 3, 5 or 7 on either the 0.32 μm or 0.36 μm column.
# Capacity factors were calculated from drug retention times collected on columns having two different mucin layer thicknesses, 0.32 μm (column prepared with a 1:2 wt % of mucin to PC IAM particles) and 0.36 μm (column prepared with a 2:1 wt % of mucin to PC IAM particles).
# [4] = cited from earlier work
# [5] = from literature; cited from earlier work
SMILES,K′MIC ([1]; Table 5),K′MIC ([1]; Table 6),k′MIC [1],Retention Time [1],Peff MIC (×10^−4 cm/s) ([1]; Table 5),Peff MIC (×10^−4 cm/s) ([1]; Table 6),Dm [1],Peff Caco-2 (×10^−6 cm/s) (Caco-2; Table 5),Peff Caco-2 (×10^−6 cm/s) (Caco-2; Table 6),Peff Loc-I-Gut (×10^−4 cm/s) ([2]; Table 5),δ = log k′MIC − log k′IAM [1],log k′MIC [1],k′MIC (1:2) [3],(1:2) k′ (pH 3) [3],(1:2) k′ (pH 5) [3],(1:2) k′ (pH 7) [3],k′MIC (2:1) [3],(2:1) k′ (pH 3) [3],(2:1) k′ (pH 5) [3],(2:1) k′ (pH 7) [3],also measured
NC(=O)N1c2ccccc2C=Cc2ccccc21 [carbamazepine],59.00,59.00,59.0000,4.2,2.96 ×10^−4 cm/s,2.96 ×10^−4 cm/s,0.0042,19.9 ×10^−6 cm/s,19.9 ×10^−6 cm/s,4.3 ×10^−4 cm/s,,,,,,,,,,,Peff Loc-I-Gut (×10^−4 cm/s) ([2]; Table 6): 4.3 ×10^−4 cm/s
COCCc1ccc(OCC(O)CNC(C)C)cc1 (stereo not shown) [Metoprolol],43,43.29,43.2857,3.1,1.21 ×10^−4 cm/s,1.21 ×10^−4 cm/s,0.0015,23.7 ×10^−6 cm/s,23.7 ×10^−6 cm/s,,1.14,1.64,47.3,50.67,50.67,47.33,35.7,36.14,41.86,35.67,
CCOC(=O)[C@H](CCc1ccccc1)N[C@@H](C)C(=O)N1CCC[C@H]1C(=O)O [enalapril maleate],35.86,,35.8571,2.6,0.38 ×10^−4 cm/s,,0.0020,,,0.2 ×10^−4 cm/s,,,34,27.33,37.33,34.00,20.7,31.86,21.86,20.67,"Retention Time ([1]; listed as Enalapril maleate): 7.8; k′MIC ([1]; listed as Enalapril maleate): 110.429; stability during the HPLC analyses ([1]; two peaks, hydrolyzed and non-hydrolyzed forms): hydrolyzed to enalaprilat; % Absorbed ([4]; Table 5): 60%; Bioavailability ([4]; footnotes of Table 4 that tell the two cimetidine and two enalapril maleate lines apart): ^4Bioavailability = 60%;; percent absorption value ([4]; reported in literature, either of two values): 60 and 100; Peff Loc-I-Gut (×10^−4 cm/s) ([2]; Table 9): 0.2 ×10^−4 cm/s"
C[C@]12C[C@H](O)[C@H]3[C@@H](CCC4=CC(=O)CC[C@@]43C)[C@@H]1CC[C@@H]2C(=O)CO [corticosterone],,,60.4286,4.3,,,0.0029,,,,0.18,1.78,,24.00,22.33,24.00,,20.43,20.43,24.00,log k′IAM [5]: 1.60; % Absorbed ([4]; Table 7): 100%
CC(C)NCC(O)COc1cccc2ccccc12 (stereo not shown) [Propranolol],70.43,70.43,70.4286,5.0,4.24 ×10^−4 cm/s,4.24 ×10^−4 cm/s,0.0034,21.8 ×10^−6 cm/s,21.8 ×10^−6 cm/s,,0.10,1.85,,75.67,92.33,99.00,,49.00,59.00,99.00,log k′IAM [5]: 1.75
CC(C)(C)NCC(O)c1cc(O)cc(O)c1 (stereo not shown) [Terbutaline],43,43.29,43.2857,3.1,1.21 ×10^−4 cm/s,1.21 ×10^−4 cm/s,0.0036,0.47 ×10^−6 cm/s,0.47 ×10^−6 cm/s,0.3 ×10^−4 cm/s,1.14,1.64,39,45.67,49.00,39.00,35.7,34.71,37.57,35.67,log k′IAM [5]: 0.50; % Absorbed ([4]; Table 5): 60%; % Absorbed ([4]; Table 6): 60%; % Absorbed ([4]; Table 7): 60%; Peff Loc-I-Gut (×10^−4 cm/s) ([2]; Table 6): 0.3 ×10^−4 cm/s; Peff Loc-I-Gut (×10^−4 cm/s) ([2]; Table 9): 0.3 ×10^−4 cm/s
CN(CC(=O)O)C(=N)N [Creatine],30.43,,30.4286,2.2,−0.22 ×10^−4 cm/s,,0.0088,,,0.3 ×10^−4 cm/s,,,25.7,39.00,39.00,39.00,24,20.43,23.29,32.33,% Absorbed ([4]; Table 5): 0%; Peff Loc-I-Gut (×10^−4 cm/s) ([2]; Table 9): 0.3 ×10^−4 cm/s
Cc1cc(=O)n(-c2ccccc2)n1C [Antipyrine],77.57,,77.5714,5.5,,,0.0053,,,5.6 ×10^−4 cm/s,1.91,1.89,50.7,54.00,54.00,50.67,40.7,40.43,39.00,40.67,log k′IAM [5]: −0.02; % Absorbed ([4]; in vivo): 100%; Peff Loc-I-Gut (×10^−4 cm/s) ([2]; Table 9): 5.6 ×10^−4 cm/s
